According to patent publication US6423347B1, “Method and product using sturgeon notochord for alleviating the symptoms of arthritis” (Abbott Laboratories, priority 1997, dated 2002):
Read-outs that look alike come from different tables or passages of the source.

Columns and labels:
[1] = system: collagen-induced arthritis (CIA); assay: Dose response of sturgeon notochord in protecting mice from CIA; type: in vivo, DBA/1 Lac J strain mice; settings: 0.1 mg/kg p.o.
Experimental: To evaluate the dose response of sturgeon notochord in protecting mice from CIA, this experiment was conducted in a manner similar to Examples II and III. The mice were DBA/1 Lac J strain supplied by Jackson Laboratories of Bar Harbor, Maine. All mice were female and about 6-8 weeks of age. Eight groups of 10-15 mice per group were acclimated to their surroundings for 7 days. A standard mouse chow and water were provided for ad libitum consumption to all animals.
On Days[…] −10, −7, −5 and −2 prior to immunization, mice were sensitized by sturgeon notochord. A group fed only vehicle was used as the negative control and a group fed with an effective dose of dexamethasone (0.1 mg/kg per os) was used as the positive control. Sturgeon notochord was obtained from farm raised sturgeon and pulverized in liquid nitrogen. The dose level of sturgeon notochord was equilibrated to 1, 3, 10, 30, 100 or 300 μg of collagen per dose based on the protein and collagen content. Sturgeon notochord was dissolved/suspended in 0.01 M acetic acid and 0.3 ml was administered to each mouse with a ball tipped feeding needle.
On Day 0, the mice were immunized at the base of the tail with 100 μg of bovine CII which was emulsified in CFA. On Day 21, the mice were injected subcutaneously with 50 μg of LPS.
Mice were inspected daily for the onset of CIA, characterized by erythema and edema. Limbs were clinically evaluated and graded on a scale of 0 to 6 as described in Example III.
The inventors continued to observe four selected groups (vehicle control group, sturgeon notochord 0.105 mg/dose group, sturgeon notochord 1.053 mg/dose group, and dexamethasone group) until Day 79. Severity scores plotted against days post-sensitization are found in FIG. 1.

[2] = system: chronic CIA induced by using human CII; assay: Chronic CIA induced by human type II collagen; type: in vivo, Female DBA/1 Lac J strain mice; settings: 0.1 mg dexamethasone/kg BW on Days 21 and 35
Experimental: Effect of Sturgeon Notochord in a Chronic Arthritis Induced by Human Type II Collagen This experiment was conducted to investigate the effectiveness of sturgeon notochord in protecting mice from chronic CIA induced by using human CII (unlike other examples in this application which used bovine CII). Female DBA/1 Lac J strain mice, approximately 6-8 weeks of age, were obtained from Jackson Laboratories of Bar Harbor, Maine. Animals were acclimated to their surroundings for 7 days. A standard mouse chow (Teklad diet) and water were provided for ad libitum consumption.
The chronic CIA induction was achieved by immunizing each mice on Day 0 and Day 21 at the base of the tail with […] of human CII which was emulsified in CFA. Animals in the vehicle control group and Dexamethasone control group received 0.01 M acetic acid on Days −10, −7, −5, and −2 and 0.1 mg dexamethasone/kg BW on Days 21 and 35, respectively. The mice receiving sturgeon notochord were divided into three groups and they were dosed with 100 mg collagen per dose dissolved/suspended in 0.01 M acetic acid and 0.3 ml was administered. Group 1 received sturgeon notochord on Days −10, −7, −5, and −2; Group 2, on Days 7, 10, 12, and 14; Group 3, Days 28, 31, 33, and 35.
Mice were inspected daily for the onset of CIA, characterized by erythema and edema. Limbs were clinically evaluated and graded on a scale of 0 to 6 (0, absence of arthritis; 0.5, one or more digits swollen or only the paw swollen; 1, entire paw swollen; 2, entire paw severely swollen; 3, mild deformity after inflammation subsides; 4, severe deformity; 5, mild ankylosis with partial loss of joint function in the paw; 6, severe ankylosis with total loss of joint function in the paw). […]

[3] = system: collagen-induced arthritis (CIA); type: in vivo
Experimental: These Examples were conducted to investigate the effectiveness of sturgeon notochord in protecting mice from collagen-induced arthritis (CIA). Female DBA/1 Lac J strain mice, approximately 6-8 weeks of age, were obtained from Jackson Laboratories of Bar Harbor, Maine. Three groups of 20 mice per group were acclimated to their surroundings for 7 days. A standard mouse chow (Purina Certified Mouse Chow #5015; 11% by wt. fat; collagen-free) and water were provided for ad libitum consumption to all animals.
Bovine serum albumin (a protein derived from non-connective tissue) and cod skin gelatin (a protein derived from another connective tissue containing Type I collagen of a fish) served as negative controls. Sturgeon notochord was obtained from farm raised sturgeon and pulverized in liquid nitrogen. The level of each test composition was equilibrated to a 300 μg protein dose based on protein (including collagen) content. Test articles were dissolved/suspended in 0.01 M acetic acid and 0.3 ml was administered per dose to each mouse with a ball tipped feeding needle.
On Day 0, the mice were immunized at the base of the tail with 100 μg of bovine CII which was emulsified in Complete Freund's Adjuvant (CFA). On Day 7, a second booster dose of 100 μg bovine CII in CFA was administered by the same route. On Day 14, the mice were injected subcutaneously with 100 μg of lipopolysaccharide (LPS). This protocol represents a mild induction of CIA.
Mice were inspected daily for the onset of CIA, characterized by erythema and edema. Limbs were clinically evaluated and graded on a scale of 0 to 3 (0, absence of arthritis; 1, mild swelling and erythema; 2, swelling and erythema of both tarsus and ankle; 3, ankylosis and bone deformity). […] All mice were euthanized by CO2 on Day 50.

C[C@@H]1C[C@H]2[C@@H]3CCC4=CC(=O)C=C[C@]4(C)[C@@]3(F)[C@@H](O)C[C@]2(C)[C@@]1(O)C(=O)CO [Dexamethasone]
% of incidence ([1]; D26): 40% | severity score ([1]; D26): 1.0 ± 0.4 | % of incidence ([1]; D28): 50% | severity score ([1]; D28): 1.1 ± 0.4 | % of incidence ([1]; D35): 50% | severity score ([1]; D35): 1.1 ± 0.4 | % incidence ([2]; D28): 33% | severity score ([2]; D28): 0.25 | % incidence ([2]; D35): 67% | severity score ([2]; D35): 0.42 | % incidence ([2]; D42): 100% | severity score ([2]; D42): 1.75 | % incidence ([2]; D49): 100% | severity score ([2]; D49): 3.58

bovine serum albumin [BSA]
median day of onset ([3]; 300 μg protein dose oral on Days −10, −7, −5 and −2): 17 days | # animals with arthritis ([3]; Day 20, 300 μg protein dose oral on Days −10, −7, −5 and −2): 12 | # animals with arthritis ([3]; Day 28, 300 μg protein dose oral on Days −10, −7, −5 and −2): 12 | # animals with arthritis ([3]; Day 40, 300 μg protein dose oral on Days −10, −7, −5 and −2): 12 | # animals with arthritis ([3]; Day 50, 300 μg protein dose oral on Days −10, −7, −5 and −2): 14 | % onset ([3]; calculated based on the Day 50 data, 300 μg protein dose): 78% | mean severity score ([3]; scale of 0 to 3, based on Day 20, 29, 34, 43 and 50 data, 300 μg protein dose): 2.05
